Measured values: ChEMBL document CHEMBL3885881, “DrugMatrix”

Organism: Rattus norvegicus
Assay: DrugMatrix - Regimen: Daily Repeat
Assay type: toxicity, organism-based, Sprague-Dawley
Set-up: regimen Daily Repeat, gender Male, age 6-8 weeks
Conditions: in vivo, sc, route subcutaneous, […]; for ABSOLUTE BASOPHIL / ABSOLUTE EOSINOPHIL / ABSOLUTE LYMPHOCYTE / ABSOLUTE MONOCYTE / ABSOLUTE SEGMENTED NEUTROPHIL / BASOPHIL / EOSINOPHIL / ERYTHROCYTE COUNT / HEMATOCRIT / HEMOGLOBIN / LEUKOCYTE COUNT / LYMPHOCYTE / MEAN CORPUSCULAR HEMOGLOBIN / MEAN CORPUSCULAR HEMOGLOBIN CONCENTRATION / MEAN CORPUSCULAR VOLUME / MONOCYTE / NEUTROPHIL / NUCLEATED RED BLOOD CELLS / PLATELET COUNT: tissue Blood; for ALANINE AMINOTRANSFERASE / ALBUMIN / ALKALINE PHOSPHATASE / ASPARTATE AMINOTRANSFERASE / BLOOD UREA NITROGEN / CARBON DIOXIDE / CHLORIDE / CHOLESTEROL / CREATINE PHOSPHOKINASE / CREATININE / GLUCOSE / LACTATE DEHYDROGENASE / LIPASE / PHOSPHORUS / POTASSIUM / SODIUM / TOTAL BILIRUBIN / TOTAL PROTEIN / URIC ACID: tissue Plasma
[1] = 18 mg/kg, 120 h, dose level High, time 5 day
[2] = 72 h, dose 1.8 mg/Kg, dose level Low, time 3 day
[3] = 120 h, dose 1.8 mg/Kg, dose level Low, time 5 day

With CN(C)c1ccc(C(=C2C=CC(=[N+](C)C)C=C2)c2ccc(N(C)C)cc2)cc1.[Cl-] [GENTIAN VIOLET] the “ABSOLUTE BASOPHIL” value [1] was 0 CELLS/uL, the “ABSOLUTE EOSINOPHIL” value [1] was 0 CELLS/uL and the “ABSOLUTE LYMPHOCYTE” value [1] was 15601 CELLS/uL. For the same compound, the “ABSOLUTE MONOCYTE” value [1] was 1849 CELLS/uL, the “ABSOLUTE SEGMENTED NEUTROPHIL” value [1] was 7750 CELLS/uL and the BASOPHIL [1] was 0%. For the same compound, the EOSINOPHIL [1] was 0%, the “ERYTHROCYTE COUNT” value [1] was 5.48 x10E6/uL and the HEMATOCRIT [1] was 32.93%. The HEMOGLOBIN [1] was 12.37 G/DL, the “LEUKOCYTE COUNT” value [1] was 25.2 x10E3/uL and the LYMPHOCYTE [1] was 61.67%. The “MEAN CORPUSCULAR HEMOGLOBIN” value [1] was 22.57 pg, the “MEAN CORPUSCULAR HEMOGLOBIN CONCENTRATION” value [1] was 37.57 G/DL and the “MEAN CORPUSCULAR VOLUME” value [1] was 60.17 fL. For the same compound, the MONOCYTE [1] was 7.33%, the NEUTROPHIL [1] was 31% and the “NUCLEATED RED BLOOD CELLS” value [1] was 0 /100WBC. For the same compound, the “PLATELET COUNT” value [1] was 1331.67 x10E3/uL, the “ALANINE AMINOTRANSFERASE” value [1] was 49 u/L and the ALBUMIN [1] was 3.03 G/DL. The “ALKALINE PHOSPHATASE” value [1] was 294.67 u/L, the “ASPARTATE AMINOTRANSFERASE” value [1] was 116 u/L and the “BLOOD UREA NITROGEN” value [1] was 16.33 mg/dL. The “CARBON DIOXIDE” value [1] was 30.67 mmol/L, the CHLORIDE [1] was 100 MEQ/L and the CHOLESTEROL [1] was 62.33 mg/dL. The “CREATINE PHOSPHOKINASE” value [1] was 196.33 u/L, the CREATININE [1] was 0.16 mg/dL and the GLUCOSE [1] was 141.33 mg/dL. For the same compound, the “LACTATE DEHYDROGENASE” value [1] was 146.33 u/L, the LIPASE [1] was 8 u/L and the PHOSPHORUS [1] was 11.3 mg/dL. For the same compound, the POTASSIUM [1] was 6.88 MEQ/L, the SODIUM [1] was 143.85 MEQ/L and the “TOTAL BILIRUBIN” value [1] was 0.13 mg/dL. For the same compound, the “TOTAL PROTEIN” value [1] was 5.57 G/DL, the “URIC ACID” value [1] was 1.37 mg/dL and the “ABSOLUTE BASOPHIL” value [2] was 0 CELLS/uL. The “ABSOLUTE EOSINOPHIL” value [2] was 115.33 CELLS/uL, the “ABSOLUTE LYMPHOCYTE” value [2] was 15675.67 CELLS/uL and the “ABSOLUTE MONOCYTE” value [2] was 309.33 CELLS/uL. For the same compound, the “ABSOLUTE SEGMENTED NEUTROPHIL” value [2] was 2499.67 CELLS/uL, the BASOPHIL [2] was 0% and the EOSINOPHIL [2] was 0.67%. The “ERYTHROCYTE COUNT” value [2] was 5.43 x10E6/uL, the HEMATOCRIT [2] was 34.87% and the HEMOGLOBIN [2] was 12.97 G/DL. The “LEUKOCYTE COUNT” value [2] was 18.6 x10E3/uL, the LYMPHOCYTE [2] was 84.33% and the “MEAN CORPUSCULAR HEMOGLOBIN” value [2] was 23.9 pg. The “MEAN CORPUSCULAR HEMOGLOBIN CONCENTRATION” value [2] was 37.2 G/DL, the “MEAN CORPUSCULAR VOLUME” value [2] was 64.3 fL and the MONOCYTE [2] was 1.67%. The NEUTROPHIL [2] was 13.33%, the “NUCLEATED RED BLOOD CELLS” value [2] was 0 /100WBC and the “PLATELET COUNT” value [2] was 1276.67 x10E3/uL. For the same compound, the “ALANINE AMINOTRANSFERASE” value [2] was 46 u/L, the ALBUMIN [2] was 3.93 G/DL and the “ALKALINE PHOSPHATASE” value [2] was 341 u/L. The “ASPARTATE AMINOTRANSFERASE” value [2] was 77.33 u/L, the “BLOOD UREA NITROGEN” value [2] was 15 mg/dL and the “CARBON DIOXIDE” value [2] was 26.67 mmol/L. For the same compound, the CHLORIDE [2] was 102 MEQ/L, the CHOLESTEROL [2] was 86.67 mg/dL and the “CREATINE PHOSPHOKINASE” value [2] was 247 u/L. The CREATININE [2] was 0.19 mg/dL, the GLUCOSE [2] was 138.67 mg/dL and the “LACTATE DEHYDROGENASE” value [2] was 298.33 u/L. The LIPASE [2] was 9.33 u/L, the PHOSPHORUS [2] was 11.5 mg/dL and the POTASSIUM [2] was 6.51 MEQ/L. For the same compound, the SODIUM [2] was 144.73 MEQ/L, the “TOTAL BILIRUBIN” value [2] was 0.23 mg/dL and the “TOTAL PROTEIN” value [2] was 5.73 G/DL. The “URIC ACID” value [2] was 1.4 mg/dL, the “ABSOLUTE BASOPHIL” value [3] was 0 CELLS/uL and the “ABSOLUTE EOSINOPHIL” value [3] was 0 CELLS/uL. For the same compound, the “ABSOLUTE LYMPHOCYTE” value [3] was 17006.67 CELLS/uL, the “ABSOLUTE MONOCYTE” value [3] was 546.67 CELLS/uL and the “ABSOLUTE SEGMENTED NEUTROPHIL” value [3] was 2113.33 CELLS/uL. For the same compound, the BASOPHIL [3] was 0%, the EOSINOPHIL [3] was 0% and the “ERYTHROCYTE COUNT” value [3] was 5.57 x10E6/uL. The HEMATOCRIT [3] was 34.4%, the HEMOGLOBIN [3] was 12.93 G/DL and the “LEUKOCYTE COUNT” value [3] was 19.67 x10E3/uL. The LYMPHOCYTE [3] was 86%, the “MEAN CORPUSCULAR HEMOGLOBIN” value [3] was 23.2 pg and the “MEAN CORPUSCULAR HEMOGLOBIN CONCENTRATION” value [3] was 37.6 G/DL. For the same compound, the “MEAN CORPUSCULAR VOLUME” value [3] was 61.77 fL, the MONOCYTE [3] was 2.67% and the NEUTROPHIL [3] was 11.33%. The “NUCLEATED RED BLOOD CELLS” value [3] was 0 /100WBC, the “PLATELET COUNT” value [3] was 1503 x10E3/uL and the “ALANINE AMINOTRANSFERASE” value [3] was 51 u/L. For the same compound, the ALBUMIN [3] was 3.47 G/DL, the “ALKALINE PHOSPHATASE” value [3] was 278 u/L and the “ASPARTATE AMINOTRANSFERASE” value [3] was 83.67 u/L. The “BLOOD UREA NITROGEN” value [3] was 19 mg/dL, the “CARBON DIOXIDE” value [3] was 27.33 mmol/L and the CHLORIDE [3] was 105 MEQ/L. The CHOLESTEROL [3] was 73.33 mg/dL, the “CREATINE PHOSPHOKINASE” value [3] was 310 u/L and the CREATININE [3] was 0.35 mg/dL. For the same compound, the GLUCOSE [3] was 162 mg/dL, the “LACTATE DEHYDROGENASE” value [3] was 102.67 u/L and the LIPASE [3] was 9.67 u/L. It also gave a PHOSPHORUS [3] of 11.3 mg/dL, a POTASSIUM [3] of 6.63 MEQ/L and an SODIUM [3] of 144.03 MEQ/L. The “TOTAL BILIRUBIN” value [3] was 0.13 mg/dL, the “TOTAL PROTEIN” value [3] was 5.8 G/DL and the “URIC ACID” value [3] was 1.63 mg/dL.
